Experimental data published in patent publication US11078496B2, “System for F-box hormone receptor regulated protein expression in mammalian cells” (ICAHN SCHOOL OF MEDICINE AT MOUNT SINAI, priority 2016, dated 2021).

Biological target: T1, AID^47-CHK1 (A-CHK1) (UniProt P93830+Q7XVM8)
T1 construct: (encoding NP_001052659); 47-amino acid segment that corresponds to amino acids 63-109 of A. thaliana IAA17; expressed in transfected cells; host or cells: CCE mESCs (lentiviral pRAIDRS)
Test: Auxin-dependent depletion of A-CHK1 in mESCs (western blot)
Assay type: cell-based, mouse
Experimental: FIG. 5A is a western blot analysis depicting endogenous CHK1 (*) and AID^47-CHK1 (A-CHK1, **) in four selected clones and in parental non-infected mESCs. […] serves as a loading control. Experiment was repeated three times for clones #1 and #2, and a representative blot is presented. In FIG. 5B, A-CHK1 #2 mESCs were treated with ethanol (“Con”) or auxin (“IAA”) for 1 day. Cells were then treated with the indicated concentrations of aphidicolin (“Aph”). Equal concentrations of DMSO were applied to all conditions. The next day, cells were stained with crystal violet and plates were scanned. […] In FIG. 5C, mESC clones were pretreated with […] aphidicolin for 1 day and were then treated with auxin for the indicated time periods. Left panel: mitotic index was calculated as the percentage of H3^pS10-positive cells with 4N DNA content, measured by flow cytometry. Right panel: dot plots for A-CHK1 #2 mESCs treated with auxin for 0 or 45 minutes. Mitotic cells are gated. FIG. 5D show bright-field microscope images of cells treated as in FIG. 5C. Images show synchronous cell rounding, a feature of late mitotic cells, 2 hours following auxin treatment in aphidicolin-treated A-CHK1 #2 cells. FIG. 5E is a western blot analysis of cells treated as in FIG. 5C. Tyr15 phosphorylation of CDK1 (“CDKlpY^15”) was detected using a phospho-specific antibody. β-Actin serves as a loading control. […] Error bars represent standard deviation of three technical replicates. […]
Cells were lysed in RIPA-B buffer (20 mM Na2HPO4 pH 7.4, 150 mM NaCl and 1% Triton X-100) supplemented with Protease Inhibitor Cocktail (Roche) for 30 minutes on ice with occasional vortexing, followed by 30 minutes centrifugation at 13,000 relative centrifugal force at 4° C. […] Luminescence was detected with X-ray films, which were scanned, or using the Bio-Rad ChemiDoc MP System. […] Quantification of protein level was performed using the ImageJ software (Schneider et al., “NIH Image to ImageJ: 25 Years of Image Analysis,” Nat. Methods 9:671-675 2012), which is hereby incorporated by reference in its entirety). […]

T1 sequence (Q7XVM8 whole entry, the tested form may be a part): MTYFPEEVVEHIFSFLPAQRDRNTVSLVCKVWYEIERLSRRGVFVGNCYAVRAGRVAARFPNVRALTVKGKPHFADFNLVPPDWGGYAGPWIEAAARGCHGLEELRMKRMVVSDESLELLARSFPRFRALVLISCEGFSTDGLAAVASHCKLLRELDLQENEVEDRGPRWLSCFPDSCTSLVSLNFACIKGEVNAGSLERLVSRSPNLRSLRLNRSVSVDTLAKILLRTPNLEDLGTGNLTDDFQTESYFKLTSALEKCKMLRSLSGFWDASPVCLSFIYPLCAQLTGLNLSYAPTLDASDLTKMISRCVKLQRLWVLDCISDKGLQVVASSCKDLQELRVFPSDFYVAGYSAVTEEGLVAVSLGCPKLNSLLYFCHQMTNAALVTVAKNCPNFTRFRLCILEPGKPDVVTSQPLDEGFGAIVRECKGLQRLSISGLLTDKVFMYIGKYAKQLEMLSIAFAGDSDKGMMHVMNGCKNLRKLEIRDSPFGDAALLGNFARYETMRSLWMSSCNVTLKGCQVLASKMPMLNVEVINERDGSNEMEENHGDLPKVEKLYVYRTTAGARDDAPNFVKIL
T1 sequence (P93830 63-109): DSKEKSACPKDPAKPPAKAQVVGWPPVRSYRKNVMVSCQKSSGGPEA

time of auxin-dependent depletion of CHK1 (aphidicolin-treated mESCs): 20 min
time for >95% degradation of CHK1 (pRAIDRS system, auxin-dependent protein depletion): 20 to 30 min
auxin-dependent degradation of A-CHK1 (selected mESC clones, western blot): complete auxin-dependent degradation
Structure (SMILES): O=C(O)Cc1c[nH]c2ccccc12 [auxin, indole-3-acetic acid]
